Legend:
Type in all cases: toxicity, cell-based
Fibroblast = assay: Incucyte cell viability with human fibroblast; details: 10 µM, compound concentration 10 uM
HEK-293T = assay: Incucyte cell viability with HEK293T; details: human, 10 µM, compound concentration 10 uM
U2OS = assay: Incucyte cell viability with U2OS; details: human, 10 µM, compound concentration 10 uM
[1] = 0 h, replicate number 1, timepoint 0 hours
[2] = 6 h, replicate number 1, timepoint 6 hours
[3] = 6 h, replicate number 2, timepoint 6 hours
[4] = 12 h, replicate number 1, timepoint 12 hours
[5] = 12 h, replicate number 2, timepoint 12 hours
[6] = 18 h, replicate number 1, timepoint 18 hours
[7] = 18 h, replicate number 2, timepoint 18 hours
[8] = 24 h, replicate number 1, timepoint 24 hours
[9] = 24 h, replicate number 2, timepoint 24 hours
[10] = 0 h, replicate number 2, timepoint 0 hours
Further: unitless GR value; below 1 slowed growth and below 0 cell loss.

Structure (SMILES) | Growth Rate (Fibroblast; [1]) | Growth Rate (Fibroblast; [2]) | Growth Rate (Fibroblast; [4]) | Growth Rate (Fibroblast; [6]) | Growth Rate (Fibroblast; [8]) | Growth Rate (Fibroblast; [9]) | Growth Rate (HEK-293T; [10]) | Growth Rate (HEK-293T; [2]) | Growth Rate (HEK-293T; [4]) | Growth Rate (HEK-293T; [5]) | Growth Rate (HEK-293T; [6]) | Growth Rate (HEK-293T; [7]) | Growth Rate (HEK-293T; [8]) | Growth Rate (HEK-293T; [9]) | Growth Rate (U2OS; [1]) | Growth Rate (U2OS; [10]) | Growth Rate (U2OS; [5]) | Growth Rate (U2OS; [6]) | Growth Rate (U2OS; [7]) | Growth Rate (U2OS; [8]) | also measured
CCc1cc2cc(NS(=O)(=O)c3ccc(C#N)cc3)ccc2n(CC)c1=O | 0.94 | 0.31 | 0.22 | 0.07 | -0.17 | 0.07 | 0.08 | 0.21 | 0.34 | 0.96 | 0.23 | 0.84 | 0.13 | 0.59 | -0.59 | -0.07 | 0.85 | 0.95 | 0.93 | 0.96 | Growth Rate (Fibroblast; [3]): -0.17; Growth Rate (Fibroblast; [5]): 0.12; Growth Rate (Fibroblast; [7]): 0.13; Growth Rate (HEK-293T; [1]): 1; Growth Rate (U2OS; [2]): 0.95
Cc1cc(CN)cc(C)c1-c1ncn(C)c1-c1ccnc2cc(F)ccc12 | – | 0.31 | 0.5 | 0.18 | 0.09 | 0.58 | 0.31 | 0.86 | 0.93 | 0.96 | 0.79 | 0.92 | 0.87 | 0.92 | -0.16 | -0.67 | 0.55 | 0.92 | 0.73 | 0.79 | Growth Rate (Fibroblast; [10]): 0.5; Growth Rate (Fibroblast; [5]): 0.83; Growth Rate (Fibroblast; [7]): 0.64; Growth Rate (HEK-293T; [3]): 0.7; Growth Rate (U2OS; [2]): 0.54; Growth Rate (U2OS; [3]): 0.18; Growth Rate (U2OS; [4]): 0.64
CCCCCCCCCCCCC/C=C/[C@@H](O)[C@@H](N)COP(=O)(O)O | – | -0.68 | 0.19 | 0.53 | 0.82 | 0.63 | – | -0.22 | 0.04 | 0.22 | 0.27 | – | 0.48 | 0.52 | – | 0.31 | – | 0.99 | 0.89 | 0.88 | Growth Rate (Fibroblast; [3]): -0.13; Growth Rate (Fibroblast; [5]): 0.17; Growth Rate (HEK-293T; [3]): -0.17; Growth Rate (U2OS; [4]): 0.95; Growth Rate (U2OS; [9]): 0.89
Cc1cccc(S(=O)(=O)N(C)[C@H](C)CCN2CCC(C)CC2)c1.Cl | 0.08 | 0.83 | – | – | – | – | 0.65 | – | – | – | 0.84 | 0.87 | 0.69 | 0.66 | 0.29 | -0.95 | – | – | 0.97 | – | Growth Rate (Fibroblast; [3]): 0.52; Growth Rate (HEK-293T; [3]): 0.92; Growth Rate (U2OS; [3]): 0.95
Cc1ccccc1-c1cc(N2CCN(C)CC2)ncc1N(C)C(=O)C(C)(C)c1cc(C(F)(F)F)cc(C(F)(F)F)c1 [NETUPITANT] | -0.23 | 0.24 | 0.63 | 0.73 | – | 0.71 | 0.7 | – | 0.84 | – | 0.72 | 0.92 | 0.5 | 0.86 | -0.52 | – | – | – | – | – | Growth Rate (Fibroblast; [10]): 0.68; Growth Rate (Fibroblast; [5]): 0.31; Growth Rate (Fibroblast; [7]): 0.71; Growth Rate (HEK-293T; [1]): 0.83
Cc1cc(CN)cc(C)c1-c1ncn(C)c1-c1cncn1C | 0.66 | 0.41 | – | – | – | – | -0.09 | – | 0.88 | – | – | – | 0.89 | – | -0.39 | 0.16 | 0.95 | 0.74 | – | 0.73 | Growth Rate (Fibroblast; [10]): -0.16; Growth Rate (HEK-293T; [1]): 0.03; Growth Rate (U2OS; [2]): 0.65; Growth Rate (U2OS; [3]): 0.66; Growth Rate (U2OS; [4]): 0.71
Cc1sc2c(c1C)C(c1ccc(Cl)cc1)=N[C@@H](CC(=O)NCCCCCCCCNC(=O)COc1cccc3c1C(=O)N(C1CCC(=O)NC1=O)C3=O)c1nnc(C)n1-2 (stereo not given in full) | 0.46 | -0.54 | -0.48 | -0.47 | -0.37 | -0.03 | 0.68 | 0.68 | 0.13 | 0.04 | 0.02 | -0.02 | 0.01 | -0.06 | -0.31 | – | 0.65 | 0.5 | 0.72 | 0.4 | Growth Rate (Fibroblast; [3]): -0.38; Growth Rate (Fibroblast; [5]): -0.2; Growth Rate (Fibroblast; [7]): -0.01; Growth Rate (U2OS; [2]): 0.38; Growth Rate (U2OS; [4]): 0.7; Growth Rate (U2OS; [9]): 0.7
CCCCNNC(=O)c1ccc(Br)cc1 | 0.73 | -0.07 | 0.37 | 0.74 | 0.99 | 0.91 | 0.79 | – | 0.93 | 0.77 | – | – | – | – | – | -0.23 | 0.99 | 0.94 | – | – | Growth Rate (Fibroblast; [10]): 0.26; Growth Rate (Fibroblast; [3]): 0.86; Growth Rate (Fibroblast; [7]): 0.93; Growth Rate (HEK-293T; [1]): 0.97; Growth Rate (U2OS; [9]): 0.91
CC(C)(C)c1ccc(-c2coc3ccc(-c4cn[nH]c4)nc23)cc1 | – | -0.89 | -0.7 | -0.62 | -0.48 | 0.09 | – | 0.36 | 0.44 | 0.39 | 0.66 | – | 0.67 | 0.62 | 0.4 | – | 0.79 | 0.76 | 0.53 | 0.69 | Growth Rate (Fibroblast; [3]): -0.35; Growth Rate (Fibroblast; [5]): 0; Growth Rate (Fibroblast; [7]): 0.05; Growth Rate (HEK-293T; [3]): 0.2; Growth Rate (U2OS; [9]): 0.43
CC(C)(O)C(=O)N1CCN(c2ccc(C(F)(F)F)c(C3=C(c4c[nH]c5ccccc45)C(=O)NC3=O)c2)CC1 | -0.17 | -0.69 | -0.33 | -0.31 | -0.3 | -0.09 | 0.33 | 0.49 | 0.3 | 0.37 | 0.44 | 0.36 | 0.33 | – | -0.52 | 0.29 | 0.78 | 0.66 | 0.68 | 0.67 | Growth Rate (Fibroblast; [10]): -0.42; Growth Rate (Fibroblast; [3]): 0.17; Growth Rate (Fibroblast; [5]): 0.04; Growth Rate (Fibroblast; [7]): -0.06; Growth Rate (HEK-293T; [3]): 0.88; Growth Rate (U2OS; [2]): 0.8; Growth Rate (U2OS; [3]): 0.91; Growth Rate (U2OS; [4]): 0.92; Growth Rate (U2OS; [9]): 0.58
CCCCC/C=C\C/C=C\C/C=C\C/C=C\CCCC(=O)OC(CO)CO [2-ARACHIDONOYLGLYCEROL] | – | – | – | – | 0.93 | – | – | 0.94 | 0.72 | 0.51 | 0.64 | 0.69 | 0.67 | 0.75 | – | 0.65 | 0.9 | – | – | 0.81 | Growth Rate (U2OS; [9]): 0.99
Br.Oc1cc2c(cc1O)C(c1ccccc1)CNCC2 (stereo not given) | 0.09 | – | – | – | – | – | 0.61 | 0.78 | 0.62 | 0.43 | 0.92 | 0.37 | – | 0.67 | – | – | – | 0.55 | 0.99 | 0.98 | Growth Rate (Fibroblast; [10]): -0.21; Growth Rate (HEK-293T; [1]): 0.99; Growth Rate (HEK-293T; [3]): -0.1; Growth Rate (U2OS; [2]): 0.49; Growth Rate (U2OS; [3]): 1; Growth Rate (U2OS; [4]): 0.47
CN1CCN(c2nc3cc(C(F)(F)F)ccc3n3cccc23)CC1.O=C(O)/C=C\C(=O)O.O=C(O)/C=C\C(=O)O | 0.87 | 0.24 | 0.72 | 0.98 | – | – | – | 0.89 | – | 0.87 | – | 0.7 | 0.8 | – | – | -1 | – | – | – | – | Growth Rate (HEK-293T; [3]): 0.57

Source: ChEMBL document CHEMBL5058564, “EUbOPEN Chemogenomics Library 2 (Incucyte)” (2022)
